Tests used:
[1] = system: hVCAM-1 mRNA; experiment: Quantification of hVCAM-1 mRNA in TNF-α-stimulated HUV-EC-C cells (real-time PCR); format: cell-based, human; set-up: key: Active: an active compound is one that causes a ≧20% inhibition in VCAM-1 mRNA at a concentration less than or equal to 10 μM; details: 1 h pretreatment, TNF-α 10 ng/mL, 24 h, VCAM-1 mRNA normalised to hCyclophilin, compound ≤10 μM
Protocol: In this example, hVCAM-1 mRNA in tissue culture cells was quantitated to measure the transcriptional inhibition of hVCAM when treated with a compound of the invention.
A human umbilical vein endothelial cell line (HUV-EC-C) was plated in a 96-well plate (5.0×10^3 cells/well) in 100 μL EGM complete media and incubated for 24 h prior to the addition of the compound of interest. The cells were pretreated for 1 h with the test compound in DMSO prior to stimulation with tumor necrosis factor-α (10 ng/mL). The cells were incubated for an additional 24 h before harvest. At time of harvest, the cells were rinsed in 200 μL PBS, and cell lysis solution (70 μL) was then added the cells for 10 min. mRNA was then prepared using the “mRNA Catcher PLUS plate” (Invitrogen), according to the protocol supplied.
(§1) The eluted mRNA was then used in a one-step quantitative real-time PCR reaction, using components of the UltraSense kit together with Applied Biosystems primer-probe mixes. 10 μL of template was amplified with 1.75 μL of hVCAM-1 primer-probe, and 1 μL of hCyclophilin primer probe, and the reaction was carried out in multiplex. Real-time PCR data was analyzed, normalizing the Ct values for hVCAM-1 to hCyclophilin, prior to determining the fold induction of each unknown sample, relative to the control.

[2] = system: hIL-6 mRNA; experiment: Quantification of hIL-6 mRNA in LPS-stimulated U937 macrophages (real-time PCR); format: cell-based, human; set-up: key: Active: an active compound is one that causes a ≧20% inhibition in IL-6 mRNA at a concentration less than or equal to 10 μM; details: U937 cells differentiated with PMA, 1 h pretreatment, LPS 1 μg/mL, 3 h; IL-6 mRNA normalised to hCyclophilin; compound ≤10 μM
Protocol: In this example, hIL-6 mRNA in tissue culture cells was quantitated to measure the transcriptional inhibition of hIL-6 when treated with a compound of the invention.
A human leukemic monocytic lymphoma cell line (U937) was plated (3.2×10^5 cells per well) in a 96-well plate in 100 μL RPMI 1640+10% FBS, and differentiated into macrophages with PMA (60 ng/mL) for 3 days prior to the addition of the compound of interest. The cells were pretreated for 1 h with the test compound in DMSO prior to stimulation with lipopolysaccharide from Escherichia coli at 1 μg/mL. The cells were incubated for 3 h before harvest. At the time of harvest, cells were rinsed in 200 μL PBS. Cell lysis solution (70 μL) was added the cells for 10 min, and mRNA was then prepared using the “mRNA Catcher PLUS plate” (Invitrogen), according to the protocol supplied.
as §1, with “mRNA isolated” for “mRNA”, “of IL-6” for “of hVCAM-1”, “for hIL-6” for “for hVCAM-1”

| Structure (SMILES) | Inhibition of VCAM-1 expression [1] | Inhibition of IL-6 expression [2] |
| --- | --- | --- |
| COc1cc(OC)c2c(=O)[nH]c(-c3cc(C)c(OCCNC#N)c(C)c3)nc2c1 [Example 51, N-(2-(4-(5,7-dimethoxy-4-oxo-3,4-dihydroquinazolin-2-yl)-2,6-dimethylphenoxy)ethyl)cyanamide] | Active | Active |
| Cc1cc(-c2nc3c(Cl)cccc3c(=O)[nH]2)cc(C)c1OCCO [Example 30, 8-chloro-2-(4-(2-hydroxyethoxy)-3,5-dimethylphenyl)quinazolin-4(3H)-one] | Inactive | Active |
| COc1cc(OC)c2c(=O)[nH]c(-c3ccc(OCCO)c4ccccc34)nc2c1 [Example 21, 2-[4-(2-hydroxy-ethoxy)-naphthalen-1-yl]-5,7-dimethoxy-3H-quinazolin-4-one] | Inactive | Active |
| COc1cc(OC)c2c(=O)[nH]c(-c3ccc4oc(CO)cc4c3)nc2c1 [Example 22, 2-(2-hydroxymethyl-benzofuran-5-yl)-5,7-dimethoxy-3H-quinazolin-4-one] | Active | Active |
